Laboratory results taken from patent US20200317716A1, “PREPARATION OF BILE ACIDS AND INTERMEDIATES THEREOF” (ALLERGAN SALES, LLC, priority 2008, published 2020).

tested on: not given; assay: not given; details: not given

Row | melting point [°C] | Molecule
1 | 213 to 216 | C[C@]12CCC(=O)C[C@H]1CC[C@H]1[C@@H]3CCC(=O)[C@@]3(C)CC[C@@]12O
2 | 146 to 147.3 | C/C=C1/CC[C@H]2[C@@H]3CC[C@@H]4C[C@H](O)CC[C@]4(C)C3=CC[C@]12C
3 | 93.9 to 97.8 | C/C=C1/CC[C@H]2[C@@H]3CC[C@@H]4C[C@H](OC(C)=O)CC[C@]4(C)C3=CC[C@]12C
4 | 114 to 116 | COC(=O)/C=C/[C@@H](C)C1=CC[C@H]2[C@@H]3CC[C@@H]4C[C@H](OC(C)=O)CC[C@]4(C)C3=CC[C@]12C
5 | 122.1 to 123.9 | COC(=O)CC[C@@H](C)[C@H]1CC[C@H]2[C@@H]3CC[C@@H]4C[C@H](OC(C)=O)CC[C@]4(C)C3=CC[C@]12C
6 | 142.2 to 144.4 | COC(=O)CC[C@@H](C)[C@H]1CC[C@H]2[C@@H]3CC[C@@H]4C[C@H](OC(C)=O)CC[C@]4(C)[C@H]3CC(=O)[C@]12C
7 | 104.2 to 107.7 | COC(=O)CC[C@@H](C)[C@H]1CC[C@H]2[C@@H]3CC[C@@H]4C[C@H](OC(C)=O)CC[C@]4(C)[C@H]3C[C@H](O)[C@]12C

tested on: Primary human adipocytes; assay: MTS cell viability assay on primary human adipocytes; format: cell-based; details: 0.005%-0.1% bile acid in serum-free media, incubated for 1 hour at 37° C., MTS read at 490 nm, FIG. 1
Protocol: Primary human adipocytes were incubated with varying concentrations of synthetic sodium deoxycholate synthesized using 9-HAD as starting material or bovine-derived sodium deoxycholate obtained from Sigma as described below.
96 well plates (US Scientific cat # cellstar no. 655180) Serum-free RPMI medium (Mediatech cat #17-105-CV) Sodium deoxycholate (DC) (Sigma cat # D6750) Synthetic Sodium glycodeoxycholate (Kythera)
Adipocytes arrived differentiated and at a density of 13,000 cells per well in a 96 well plate. Two plates were received and each treated with the same samples. Cells were incubated for 24 hours at 37° C. with 5% CO2. A 1% stock solution of each bile acid (synthetic and non-synthetic DCA) were made by dissolving 20 mg into 2 mL media (serum-free). Using the 1% stock solution, the following 11 solutions were prepared by dilution: 0.005%, 0.01%, 0.015%, 0.02%, 0.025%, 0.03%, 0.035%, 0.04%, 0.05%, 0.06%, and 0.1%, as well as 0% (media only).
Cells were washed 2× with 150 μL of room temperature 1×PBS (phosphate buffered saline). Media and then PBS were removed from the wells in a 96 well plate by turning the plate upside down and decanting the liquid into a container. After the last PBS wash, 80 μL of sample was added per well. […]
Cell viability was assessed using a colorimetric assay (MTS) kit from Promega.

Row | Molecule | cell survival
8 | sodium deoxycholate [syn-NaDC] | dose-dependent decrease in cell survival
